Where “and” joins values, the source holds several entries; their conditions need not be identical. Equal entries are not always repeated.

The test system of experiment [1] is T-cells. Briefly: 3-days T-cell proliferation assay (3H-thymidine) after three rounds of in vitro stimulation of PBMC bulk cultures with RAS peptides. Type of experiment: cell-based, human. To be noted: bulk cultures stimulated three rounds with TG02 + 13R, 10 μM peptide. The method, then: In this example, Buffy coats were collected from 4 normal human donors (Buffy 1, Buffy 2, Buffy 3, and Buffy 4) and were cultured in vitro. The in vitro PBMCs were stimulated with a single RAS peptide or a mixture of RAS peptides, and T-cell proliferation assays performed.
The procedure must be performed at room temperature until point 5. All handling of cells in the open is done in a vertical laminar flow hood. • 1. Rapidly transfer the vials, each vial with frozen PBMC from a buffy coat (Buffy 1, Buffy 2, Buffy 3, and Buffy 4), to a water bath at 37° C. • 2. Shake the vials manually at regular intervals (approx. 2-3 min.) and remove them from the water bath while some ice is still present. • 3. When all the ice is melted, transfer 1 ml of CellGro DC medium drop-wise to the cell suspension. • 4. Transfer the cell suspension to a 50 ml tube containing 20 ml of CellGro DC medium. • 5. Centrifuge cells at 500G for 5 min at room temperature. • 6. Resuspend the cells in 5 ml CellGro DC medium. • 7. Count the number of viable cells using a Burker chamber or KOVA Galsstic slides and adjust the cell concentration to 2×10^6 cells/ml in complete CellGro DC medium (see recipe). Total cell numbers: Buffy 1-45×10^6, Buffy 2-27.5×10^6, Buffy 3-40.5×10^6, and Buffy 4-40.5×10^6 cells.
b. Bulk cultures for increasing number of RAS peptide reactive T-cells • 1. […]

Experiment [2] concerns any RAS mutation. To be noted: cited from earlier work.

Consider “KLVVVGAGCVGKSALTI (listed as Homo sapiens) [13C, RAS peptide of the peptide mixture having a G13C mutation]”, for which, in experiment [1] (Donor #3, single replicates), the “Counts per minute (CPM), APC + T-cell + 13 C” value is 27813 CPM and 32522 CPM and 28869 CPM. In experiment [1] (Mean Donor #3), the “Mean counts per minute (CPM), APC + T-cell + 13 C” value is reported as 29735 CPM.

Regarding “paitumumab-FOLFOX4: panitumumab (printed paitumumab) in combination with FOLFOX4 chemotherapy”, the “Outcome of treatment in patients having any RAS mutation” value in experiment [2] is “may even be harmed”.

Source of the values: patent publication US20190374628A1, “MUTATED FRAGMENTS OF THE RAS PROTEIN” (Targovax ASA, priority 2015, published 2019).
